From US20230008508A1, “COMBINATION THERAPIES FOR THE TREATMENT OF CANCER” (H. LEE MOFFITT CANCER CENTER AND RESEARCH INSTITUTE, INC., priority 2019, published 2023)

Tests used:
[1] = test system: FaDu Head and Neck SCC line; assay: Glycolysis measured by Extracellular Acidification Rate (Seahorse); assay type: cell-based; conditions: 10 micromolar; sensitive FaDu HNSCC line; FIG. 2D
Text: (§1) Glycolysis, as measured by Extracellular Acidification Rate (Seahorse), is diminished by pramlintide administration (10 micromolar) in the sensitive SQ20B and FaDu Head and Neck SCC lines. […]

[2] = test system: SQ20B Head and Neck SCC line; assay: as above; assay type: cell-based; conditions: 10 micromolar; sensitive SQ20B HNSCC line; FIG. 2D
Text: as §1

[3] = test system: cutaneous squamous cell carcinoma (cuSCC) cell lines; assay: Glycolysis of cuSCC cell lines; assay type: cell-based
FBXO16 = assay: Expression of ΔNp63 target gene FBXO16; assay type: cell-based
Text: Sensitive lines upregulate FBXO16 in response to both pramlintide and direct siRNA-mediate knockdown of ΔNp63 showing that pramlintide mediated degradation of ΔNp63 affects target gene expression. Thus target genes may be used as a biomarker of responsiveness to pramlintide. Resistant lines downregulate FBXO16 in response to both pramlintide and direct siRNA-mediate knockdown of ΔNp63 showing that pramlintide mediated degradation of ΔNp63 affects target gene expression.
(§2) Here, is shown that deletion of the AN isoforms of p63 or p73 leads to metabolic reprogramming and regression of p53 deficient tumors (FIG. 1). […] When investigated further it was shown that pramlintide suppresses 4Np63 expression (FIG. 4). […] These findings were validated across the sensitive cell lines Colo16 and RDEB2 and the resistant cell lines SCCIC1 and SRB12 for pramlintide (symlin) administration and regulation by ΔNp63 showing reduced levels for CYR61 and CTGF in the sensitive lines and no effect or increases in resistant lines (FIG. 6). A similar observation was also made with the F-box protein FBXO16. […] Looking at additional cell types, ΔNp63 was expressed in sensitive cells but not resistant cells (FIG. 9). To see if the regulation pattern for CYR61, CTGF, and FBXO16 was maintained in HNSCC cell lines, the expression level for each was measured in SQ20B and FaDu cells with and without the application of pramlintide (symlin) (FIG. 10). As for the Sensitive cuSCC lines, the sensitive HNSCC lines upregulate FBXO16 and downregulate CYR61 and CTGF in response to both pramlintide showing that pramlintide mediated degradation of ΔNp63 affects target gene expression. Thus, target genes cay be used as a biomarker of responsiveness to pramlintide. We next investigated the effect of pramlintide (symlin) on ΔNp63 expression levels in SQ20B (FIG. 11) and FaDu (FIG. 12) cell lines.

ΔNp63 = ΔNp63 expression / protein levels (western blots); assay type: cell-based; conditions: for ΔNp63 protein expression: western blot
Text: as §2
(§3) In fact, it was observed that both pramlintide and HDACi treatment reduces ΔNp63 in H1975 lung adenocarcinoma (LUAD) cells (FIG. 15). […] To investigate what effects panobinostat has on the glycolytic rate of HCC95 and H1975 cells, glycolysis was measured by ECAR showing in both […] glycolysis was decreased with treatment (FIG. 17).

SRB12 cells = assay: Radiation treatment with and without pramlintide; assay type: cell-based; conditions: pramlintide at the IC40, FIG. 21
Protocol: During the experiments it was observed that Pramlintide induces ROS in in-vivo in tumors (FIG. 20). To investigate whether because of its effect on ROS pramlintide would have a synergistic effect on radiation sensitivity, SRB12 cells were treated with radiation with and without the presence of pramlintide. […] Accordingly, in one aspect, disclosed herein are methods of increasing the sensitivity of a cancer (such as for example, cutaneous squamous cell carcinoma (cuSCC) or lung cancer or any cancer comprising a p53, p63, or p73 mutation or aberrant expression thereof) in a subject to radiation therapy comprising administering to the subject an agent that inhibits ΔNp63 and/or ΔNp73. In one aspect the agent that inhibits ΔNp63 and/or ΔNp73 comprises an inhibitor of glycolysis (such as, for example, an amylin analog including but not limited to pramlintide).

[4] = test system: p53 deficient lung cancers; assay: Tumor regression in p53 deficient tumors; assay type: in vivo
Text: as §2

[5] = test system: p53 deficient thymic lymphomas; assay: Tumor regression in p53 deficient tumors; assay type: in vivo
Text: as §2

CTGF = assay: Expression of ΔNp63 target gene CTGF; assay type: cell-based
Text: (§4) Sensitive lines downregulate CYR61 and CTGF in response to both pramlintide and direct siRNA-mediated knockdown of ΔNp63 showing that pramlintide mediated degradation of ΔNp63 affects target gene expression. Resistant lines upregulate CYR61 and CTGF in response to both pramlintide and direct siRNA-mediate knockdown of ΔNp63.
as §2

HCC95 lung SCC cells = assay: Glycolytic rate measured by ECAR; assay type: cell-based; conditions: FIG. 17
Protocol: (§5) Glycolysis as measured by ECAR in HCC95 lung SCC and H1975 lung adenocarcinoma cells are decreased by pramlintide.
as §3

[6] = test system: H1975 lung adenocarcinoma cells; assay: Glycolytic rate measured by ECAR; assay type: cell-based; conditions: FIG. 17
Protocol: as §5, §3

[7] = test system: spontaneous UV-driven cutaneous squamous cell carcinoma (cuSCC); assay: Tumor regression in spontaneous UV-driven cuSCC model; assay type: in vivo; conditions: FIG. 3
Text: as §2

SRB12 = assay: Sensitivity of cuSCC cell line to pramlintide (inhibition curve); assay type: cell-based
Text: as §1, §2

Colo16 = assay: as above; assay type: cell-based
Text: as §1, §2

SCCIC1 = assay: as above; assay type: cell-based
Text: as §1, §2

CYR61 = assay: Expression of ΔNp63 target gene CYR61; assay type: cell-based
Text: as §4, §2

RDEB2 = assay: Sensitivity of cuSCC cell line to pramlintide (inhibition curve); assay type: cell-based
HCC95 cells = assay: Cell proliferation and survival (cell cycle arrest, annexin V apoptosis); assay type: cell-based; conditions: FIG. 16
Protocol: (§6) Cell cycle arrest and apoptosis are increased by pramlintide and HDACi in HCC95 lung SCC and H1975 lung adenocarcinoma cell lines.
as §3

H1975 cells = assay: as above; assay type: cell-based; conditions: FIG. 16
Protocol: as §6, §3

tumors = conditions: in-vivo; prior published studies; FIG. 20; cited from earlier work
[8] = sensitive HNSCC lines (SQ20B, FaDu), FIG. 10
[9] = resistant cuSCC lines (SCCIC1, SRB12), FIG. 6
[10] = sensitive cuSCC lines (Colo16, RDEB2), FIG. 6

SMILES: CC[C@H](C)[C@H](NC(=O)[C@@H]1CCCN1C(=O)CNC(=O)[C@H](Cc1ccccc1)NC(=O)[C@H](CC(N)=O)NC(=O)[C@H](CC(N)=O)NC(=O)[C@H](CO)NC(=O)[C@H](CO)NC(=O)[C@H](Cc1c[nH]cn1)NC(=O)[C@@H](NC(=O)[C@H](CC(C)C)NC(=O)[C@H](Cc1ccccc1)NC(=O)[C@H](CC(N)=O)NC(=O)[C@H](C)NC(=O)[C@H](CC(C)C)NC(=O)[C@H](CCCNC(=N)N)NC(=O)[C@H](CCC(N)=O)NC(=O)[C@@H](NC(=O)[C@H](C)NC(=O)[C@@H]1CSSC[C@H](NC(=O)[C@@H](N)CCCCN)C(=O)N[C@@H](CC(N)=O)C(=O)N[C@@H]([C@@H](C)O)C(=O)N[C@@H](C)C(=O)N[C@@H]([C@@H](C)O)C(=O)N1)[C@@H](C)O)C(C)C)C(=O)N[C@@H](CC(C)C)C(=O)N1CCC[C@H]1C(=O)N1CCC[C@H]1C(=O)N[C@H](C(=O)N[C@@H](CC(N)=O)C(=O)N[C@H](C(=O)NCC(=O)N[C@@H](CO)C(=O)N[C@@H](CC(N)=O)C(=O)N[C@H](C(=O)N[C@@H](Cc1ccc(O)cc1)C(N)=O)[C@@H](C)O)C(C)C)[C@@H](C)O [pramlintide]
- Glycolysis (Extracellular Acidification Rate) [1]: diminished
- Glycolysis (Extracellular Acidification Rate) [2]: diminished
- Glycolysis ([3]; resistant cuSCC lines, FIG. 2A, 2C): do not exhibit this decrease in glycolysis
- Glycolysis ([3]; sensitive cells, FIGS. 2A-2D): suppresses glycolysis
- FBXO16 expression (FBXO16; resistant cuSCC lines, FIG. 8): downregulate
- FBXO16 expression (FBXO16; [8]): upregulate
- FBXO16 expression (FBXO16; sensitive cuSCC lines, FIG. 8): upregulate
- ΔNp63 expression (ΔNp63; FIG. 4, cell line not stated): suppresses ΔNp63 expression
- Dependence of ΔNp63 suppression on Fbxw7 expression (ΔNp63; FIG. 13): needs to be present
- ΔNp63 protein expression (ΔNp63; FaDu, FIG. 12): decreased protein expression
- ΔNp63 protein levels (ΔNp63; H1975 LUAD cells, FIG. 15): reduce ΔNp63
- ΔNp63 protein levels (ΔNp63; LUSC HCC95 cells, FIG. 14): reduces ΔNp63 protein levels
- ΔNp63 protein expression (ΔNp63; SQ20B, FIG. 11): decreased protein expression
- Sensitivity to radiation treatment (SRB12 cells): more sensitive to radiation treatment
- Tumor regression [4]: rapid tumor regression
- Tumor regression [5]: rapid tumor regression
- CTGF expression (CTGF; [9]): upregulate
- CTGF expression (CTGF; [8]): downregulate
- CTGF expression (CTGF; [10]): downregulate
- Glycolysis (ECAR) (HCC95 lung SCC cells): decreased
- Glycolysis (ECAR) [6]: decreased
- Tumor regression [7]: induces tumor regression
- Sensitivity to pramlintide (SRB12): resistant
- Sensitivity to pramlintide (Colo16): sensitive
- Sensitivity to pramlintide (SCCIC1): resistant
- CYR61 expression (CYR61; [9]): upregulate
- CYR61 expression (CYR61; [8]): downregulate
- CYR61 expression (CYR61; [10]): downregulate
- Sensitivity to pramlintide (RDEB2): sensitive
- Apoptosis (annexin V staining) (HCC95 cells; HCC95): increased apoptosis
- Proliferation (HCC95 cells; HCC95 cells): reduced proliferation
- Cell cycle arrest (HCC95 cells; HCC95 lung SCC): increased
- Apoptosis (annexin V staining) (H1975 cells; H1975): increased apoptosis
- Proliferation (H1975 cells; H1975 cells): reduced proliferation
- Cell cycle arrest (H1975 cells; H1975 lung adenocarcinoma): increased
- ROS in tumors (tumors): induces ROS
